According to US10851093B2, “Tyrosine kinase inhibitors” (Rigel Pharmaceuticals, Inc., priority 2018, dated 2020):

Legend:
Axl = biological target: T1, Axl (Homo sapiens, UniProt P30530); assay: Phospho-AKT HTRF, HUVEC, Axl ABX-L, 8 pt; format: cell-based; settings: HUVEC cells, pAkt(Ser473) HTRF, Axl ABX-L stimulation
T1 construct: Seed HUVECs (10K cells/well) in EBM-2 complete media; host or cells: HUVEC
T1 sequence (P30530 26-894): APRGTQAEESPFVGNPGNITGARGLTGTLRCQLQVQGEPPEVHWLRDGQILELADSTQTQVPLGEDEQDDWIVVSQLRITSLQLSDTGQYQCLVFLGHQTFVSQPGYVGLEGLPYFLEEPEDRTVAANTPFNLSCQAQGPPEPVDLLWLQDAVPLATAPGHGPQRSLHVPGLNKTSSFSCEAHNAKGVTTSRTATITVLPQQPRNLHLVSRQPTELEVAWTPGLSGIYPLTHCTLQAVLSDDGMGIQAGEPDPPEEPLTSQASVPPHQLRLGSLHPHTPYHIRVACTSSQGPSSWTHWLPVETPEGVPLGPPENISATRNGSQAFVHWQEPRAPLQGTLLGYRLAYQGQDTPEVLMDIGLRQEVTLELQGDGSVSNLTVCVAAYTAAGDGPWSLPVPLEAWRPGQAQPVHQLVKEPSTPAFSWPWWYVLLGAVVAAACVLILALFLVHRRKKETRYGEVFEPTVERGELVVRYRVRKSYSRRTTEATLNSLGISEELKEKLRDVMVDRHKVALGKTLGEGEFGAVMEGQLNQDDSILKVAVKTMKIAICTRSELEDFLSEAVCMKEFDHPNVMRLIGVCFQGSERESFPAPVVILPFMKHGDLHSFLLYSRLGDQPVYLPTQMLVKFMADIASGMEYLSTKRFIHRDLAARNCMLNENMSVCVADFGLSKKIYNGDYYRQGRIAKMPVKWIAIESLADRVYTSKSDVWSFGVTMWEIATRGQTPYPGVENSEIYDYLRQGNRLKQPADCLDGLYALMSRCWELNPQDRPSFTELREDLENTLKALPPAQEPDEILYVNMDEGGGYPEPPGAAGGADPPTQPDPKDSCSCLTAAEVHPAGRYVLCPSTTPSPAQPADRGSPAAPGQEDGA
Procedure: [The source words this procedure for another target and reports this target under the same test.] (§1) Example 13: PAKT HTRF-HUVEC Assay
(§2) Seed HUVECs (10K cells/well) in EBM-2 complete media (EBM-2 basal medium plus EGM-2 BulletKit supplements) overnight at 37° C., 5% CO2 in Costar 96-well white clear-bottom plates. Remove culture media and starve cells for 3-4 hours in 50 μL/well EBM-2 basal medium. Perform serial dilution of compounds in DMSO from 2.5 mM in 4-fold dilutions, and then dilute 1:125 in EBM-2 basal media. Mix 50 μL/well 2× compounds with 50 μL/well HUVECs in duplicate in Costar 96-well white clear-bottom plates. Incubate plates for 1 hour at 37° C., 5% CO2. Cross-link anti-human MerTK antibody to Biotin-SP-conjugated anti-mouse IgG antibody (1:1) to give final concentrations of 5 μg/mL of anti-human MerTK-XL. Stimulate HUVECs with 25 μL/well 5× anti-human MerTK-XL to give final concentrations of 1 ug/mL for 10 minutes at 37° C., 5% CO2. Completely remove media and lyse HUVECs with 40 uL:WELL per well of Cisbio HTRF 1× lysis buffer. Performed pAkt(Ser473) HTRF assay in ProxiPlate-384 Plus, white 384-shallow well microplate according to the vendor protocol and read plates with a SpectralMax Paradigm plate reader. Enter the HTRF values into Athena (Rigel) for curve fitting, EC50 calculation, and database storage.

MerTK = biological target: T2, MerTK (Homo sapiens, UniProt Q12866); assay: Phospho-AKT HTRF, HUVEC, Mer-XL, 8 pt (pAKT HTRF-HUVEC assay, anti-human MerTK-XL stimulation); format: cell-based; settings: HUVEC cells, pAkt(Ser473) HTRF, anti-human MerTK-XL stimulation 1 ug/mL 10 minutes
T2 construct: Seed HUVECs (10K cells/well) in EBM-2 complete media; host or cells: HUVEC
T2 sequence (Q12866 21-999): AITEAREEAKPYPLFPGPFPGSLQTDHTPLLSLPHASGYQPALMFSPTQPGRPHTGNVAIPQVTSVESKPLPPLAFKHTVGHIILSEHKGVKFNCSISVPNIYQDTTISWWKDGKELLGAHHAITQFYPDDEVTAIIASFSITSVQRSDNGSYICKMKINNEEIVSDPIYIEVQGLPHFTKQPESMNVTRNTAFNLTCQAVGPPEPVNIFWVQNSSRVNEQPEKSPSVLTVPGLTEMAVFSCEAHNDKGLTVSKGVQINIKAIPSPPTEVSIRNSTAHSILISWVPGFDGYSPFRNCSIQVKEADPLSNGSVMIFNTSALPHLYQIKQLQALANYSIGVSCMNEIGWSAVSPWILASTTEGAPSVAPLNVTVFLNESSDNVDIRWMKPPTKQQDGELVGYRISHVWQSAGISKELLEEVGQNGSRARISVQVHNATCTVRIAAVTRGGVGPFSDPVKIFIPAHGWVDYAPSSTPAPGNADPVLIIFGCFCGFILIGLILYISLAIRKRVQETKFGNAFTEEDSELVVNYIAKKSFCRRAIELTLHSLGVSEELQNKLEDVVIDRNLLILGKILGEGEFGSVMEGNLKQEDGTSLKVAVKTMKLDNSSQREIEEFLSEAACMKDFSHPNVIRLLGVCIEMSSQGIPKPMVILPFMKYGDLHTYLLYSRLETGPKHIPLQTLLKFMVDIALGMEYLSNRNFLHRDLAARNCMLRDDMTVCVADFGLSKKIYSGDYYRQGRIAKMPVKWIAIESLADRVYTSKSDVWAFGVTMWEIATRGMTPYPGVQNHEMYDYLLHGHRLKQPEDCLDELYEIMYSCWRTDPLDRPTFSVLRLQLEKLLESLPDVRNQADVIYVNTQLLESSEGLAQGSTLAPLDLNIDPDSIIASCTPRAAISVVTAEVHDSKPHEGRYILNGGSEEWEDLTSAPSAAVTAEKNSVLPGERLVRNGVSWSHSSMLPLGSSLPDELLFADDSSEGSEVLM
Procedure: as §1, §2

EC50 (Axl) | EC50 (MerTK) | SMILES
403 nM | 421 nM | COc1cc2c(Oc3ccc(NC(=O)c4cc(N5CCN(C)CC5)ccn4)nc3)ccnc2cc1OCCCN1CCOCC1 [Compound 1, N-(5-((6-Methoxy-7-(3-morpholinopropoxy)quinolin-4-yl)oxy)pyridin-2-yl)-4-(4-methylpiperazin-1-yl)picolinamide]
40.8 nM | 47 nM | COc1cc2c(Oc3ccc(NC(=O)c4cc(-c5ccccc5)c5c(n4)C4CCN5CC4)nc3)ccnc2cc1OCCCN1CCOCC1 [Compound 2, N-(5-((6-Methoxy-7-(3-morpholinopropoxy)quinolin-4-yl)oxy)pyridin-2-yl)-8-phenyl-3,4-dihydro-2H-1,4-ethano-1,5-naphthyridine-6-carboxamide]
162 nM | 98.7 nM | COc1cc2c(Oc3ccc(NC(=O)c4cc(-c5ccccc5)ccn4)nc3)ccnc2cc1OCCCN1CCOCC1 [Compound 3, N-(5-((6-Methoxy-7-(3-morpholinopropoxy)quinolin-4-yl)oxy)pyridin-2-yl)-4-phenylpicolinamide]
5 nM | 3.9 nM | COc1cc2c(Oc3ccc(NC(=O)c4nccc(-c5ccccc5)n4)nc3)ccnc2cc1OCCCN1CCOCC1 [Compound 4, N-(5-((6-Methoxy-7-(3-morpholinopropoxy)quinolin-4-yl)oxy)pyridin-2-yl)-4-phenylpyrimidine-2-carboxamide]
1.4 nM | 2.2 nM | COc1cc2c(Oc3ccc(NC(=O)c4nc(-c5ccccc5)c5ccccc5n4)nc3)ccnc2cc1OCCCN1CCOCC1 [Compound 5, N-(5-((6-Methoxy-7-(3-morpholinopropoxy)quinolin-4-yl)oxy)pyridin-2-yl)-4-phenylquinazoline-2-carboxamide]
3.3 nM | 2.5 nM | COc1cc2c(Oc3ccc(NC(=O)c4nc(-c5ccccc5)c5c(n4)C4CCN5CC4)nc3)ccnc2cc1OCCCN1CCOCC1 [Compound 6, N-(5-((6-methoxy-7-(3-morpholinopropoxy)quinolin-4-yl)oxy)pyridin-2-yl)-4-phenyl-7,8-dihydro-6H-5,8-ethanopyrido[3,2-d]pyrimidine-2-carboxamide, hydrochloric acid]
18.2 nM | 10 nM | COc1cc2c(Oc3ccc(NC(=O)c4cc(-c5ccccc5)c5c(n4)C4CCN5CC4)nc3)ccnc2cc1OCCCN1CCOCC1 [Compound 7, N-(5-((6-Methoxy-7-(3-morpholinopropoxy)quinolin-4-yl)oxy)pyridin-2-yl)-8-phenyl-3,4-dihydro-2H-1,4-ethano-1,5-naphthyridine-6-carboxamide, hydrochloric acid]
228 nM | 90.9 nM | COc1cc2c(Oc3ccc(NC(=O)c4cc(N5CCC(O)CC5)ccn4)nc3)ccnc2cc1OCCCN1CCOCC1 [Compound 8, 4-(4-Hydroxypiperidin-1-yl)-N-(5-((6-methoxy-7-(3-morpholino-propoxy)quinolin-4-yl)oxy)pyridin-2-yl)picolinamide, trifluoroacetic acid]
71.7 nM | 42.7 nM | COc1cc2c(Oc3ccc(NC(=O)c4nc5ccccc5c(=O)[nH]4)nc3)ccnc2cc1OCCCN1CCOCC1 [Compound 9, N-(5-((6-Methoxy-7-(3-morpholinopropoxy)quinolin-4-yl)oxy)pyridin-2-yl)-4-oxo-3,4-dihydroquinazoline-2-carboxamide, trifluoroacetic acid]
12.9 nM | 4.9 nM | COc1cc2c(Oc3ccc(NC(=O)c4cccc(-c5ccccc5)n4)nc3)ccnc2cc1OCCCN1CCOCC1 [Compound 10, N-(5-((6-Methoxy-7-(3-morpholinopropoxy)quinolin-4-yl)oxy)pyridin-2-yl)-6-phenylpicolinamide]
197 nM | 86 nM | COc1cc2c(Oc3ccc(NC(=O)c4cc(N5CCC(O)CC5)ccn4)nc3)ccnc2cc1OCCCN1CCOCC1 [Compound 11, 4-(4-Hydroxypiperidin-1-yl)-N-(5-((6-methoxy-7-(3-morpholino-propoxy)quinolin-4-yl)oxy)pyridin-2-yl)picolinamide]
99.4 nM | 72.1 nM | COc1cc2c(Oc3ccc(NC(=O)c4nc5ccccc5c(=O)[nH]4)nc3)ccnc2cc1OCCCN1CCOCC1 [Compound 12, N-(5-((6-Methoxy-7-(3-morpholinopropoxy)quinolin-4-yl)oxy)pyridin-2-yl)-4-oxo-3,4-dihydroquinazoline-2-carboxamide]
53.8 nM | 20.2 nM | COc1cc2c(Oc3ccc(NC(=O)c4cc(N5CCCCC5)ccn4)nc3)ccnc2cc1OCCCN1CCOCC1 [Compound 13, N-(5-((6-methoxy-7-(3-morpholinopropoxy)quinolin-4-yl)oxy)pyridin-2-yl)-4-(piperidin-1-yl)picolinamide]
805 nM | 430 nM | COc1cc2c(Oc3ccc(NC(=O)c4cc(N5CCOCC5)ccn4)nc3)ccnc2cc1OCCCN1CCOCC1 [Compound 14, N-(5-((6-methoxy-7-(3-morpholinopropoxy)quinolin-4-yl)oxy)pyridin-2-yl)-4-morpholinopicolinamide]
257 nM | 204 nM | CCOC1CCN(c2ccnc(C(=O)Nc3ccc(Oc4ccnc5cc(OCCCN6CCOCC6)c(OC)cc45)cn3)c2)CC1 [Compound 15, 4-(4-ethoxypiperidin-1-yl)-N-(5-((6-methoxy-7-(3-morpholinopropoxy)quinolin-4-yl)oxy)pyridin-2-yl)picolinamide]
43.2 nM | 27.9 nM | COc1cc2c(Oc3ccc(NC(=O)c4cc(N5CCCC5)ccn4)nc3)ccnc2cc1OCCCN1CCOCC1 [Compound 16, N-(5-((6-methoxy-7-(3-morpholinopropoxy)quinolin-4-yl)oxy)pyridin-2-yl)-4-(pyrrolidin-1-yl)picolinamide]
1370 nM | 1640 nM | COc1cc2c(Oc3ccc(NC(=O)c4cc(N5CCC(c6ccccc6)CC5)ccn4)nc3)ccnc2cc1OCCCN1CCOCC1 [Compound 17, N-(5-((6-methoxy-7-(3-morpholinopropoxy)quinolin-4-yl)oxy)pyridin-2-yl)-4-(4-phenylpiperidin-1-yl)picolinamide]
